Three molecules from patent US12618045B2, “Automated method for preparing retinal pigment epithelium cells” (CENTRE D'ETUDE DES CELLULES SOUCHES (CECS), priority 2019, dated 2026) can be followed below.

In experiment [1] the test system is hESCs (hESC line RC-0913). Put plainly: Immunostaining of marker proteins during differentiation of hESCs. Type of experiment: cell-based, human. The method, then: (§1) Clinical-grade hESC line RC-0913, was used and cultured in feeder free conditions using mTeSR™ Medium (StemCell technologies) and hESC qualified Matrigel (Corning). Cells were banked at passage 36 and used for RPE differentiation between passage 38 and 45. Cells were plated at 5×10^4 cells per cm^2 and grown until they reached 80 percent of confluence before switching to a differentiation medium composed of Dulbecco's modified Eagle's medium (high glucose, Thermo Fisher Scientific) supplemented with 50 μM β-mercaptoethanol, 1× minimum essential medium-nonessential amino acids (Thermo Fisher Scientific) and 20% (D0-D42) or 4% (after passage 1) of knockout serum replacement (KSR, Thermo Fisher Scientific). During all the differentiation process the medium was changed every 2/3 days.
(§2) For the referred “directed differentiation” protocol, 10 mM Nicotinamide (Sigma), 100 ng/ml Activin A
(§3) (Peprotech) and 3 μM CHIR99021 (Tocris) were added sequentially to the basal differentiation medium at specific time points (FIG. 2A).
hESC-RPE cells were grown on Matrigel-coated 96 or 24-well plates. Adherent cells were fixed in 4% PFA for 10 min at room temperature (RT) and rinsed 3 times with PBS. After 30 min in blocking solution (10% FBS in 0.1% Triton PBS) at RT, cells were incubated with primary antibodies overnight at 4° C. After 3 washes in PBS, appropriate Alexa Fluor-conjugated secondary antibodies (Invitrogen) were added at 1:500 for 1 h at RT in presence of DAPI (Invitrogen).
Images were acquired with an Axio observer Z1 microscope (Zeiss) with a Hamamatsu ORCA-flash 4.0 camera and a spinning disk unit (Yokogawa CSU-X1-A1N-E; Camera evolve, EMCCD 512) with Metamorph software or with a LSM-800 confocal microscope (Zeiss) with Zen software. Images were exported, analyzed and processed with Fiji software. […] The quantification of pigmented areas was performed after manual delimitation of culture dish areas using Fiji software. Pictures were then binarized to 8-bit images using a fixed intensity threshold and the black area fraction was measured (not herein shown).

The test system of experiment [2] is hESCs (hESC line RC-0913). Put plainly: RT-qPCR of retinal development markers during differentiation of hESCs. Format: cell-based, human. The method, then:
as §1, §2, §3
Total RNAs were extracted using RNAeasy Plus Mini kit (Qiagen) and cDNA synthesized using SuperScript III (Invitrogen). Quantitative real-time RT-PCR was performed using a Quant Studio 12K flex (Applied Biosystems) with HiGreen qPCR Master Mix (Thermo Fisher Scientific). Experiments were performed with at least three technical replicates per plate and expression levels were normalized to 18S. Relative expression compared to hESCs gene expression levels were determined by calculating the 2-ΔΔCt.

[3] abbreviates: CHIR99021 from day 14 to day 35-42.

As for `Cc1c[nH]c(-c2cnc(NCCNc3ccc(C#N)cn3)nc2-c2ccc(Cl)cc2Cl)n1` [CHIR99021], in experiment [1] (day 21, CHIR99021 from day 14), the “MITF+ cells” value was 87.5%±12.5% and the VSX2 positive cells entry was “absence”. Further, in experiment [2] (setting [3]), the “MITF expression (mRNA)” value was “continuous increased expression” and the “VSX2 mRNA levels” value was “acute decreased expression”.
In the case of `NC(=O)c1cccnc1` [Nicotinamide], the “cells co-expressing LHX2 and PAX6 proteins” value in experiment [1] (day 7 after Nicotinamide treatment, n=3) is reported as 86.8%±4.3%. Also, the “transient expression of early eye field transcription factors SIX3 and RAX (mRNA)” value in experiment [2] (Nicotinamide 10 mM, first 7 days of differentiation, compared to spontaneous protocol, p<0.01) is on record as “significantly enhanced”. In addition, the “expression of pluripotency marker NANOG (mRNA)” value in experiment [2] (Nicotinamide 10 mM, first 7 days, compared to spontaneous protocol, p<0.01) is “higher decrease”.

B1: Activin A: member of TGF β superfamily, second differentiating agent, 100 ng/ml (Peprotech) (protein, UniProt P08476 311-426, looked up)
Inhibin beta A chain: GLECDGKVNICCKKQFFVSFKDIGWNDWIIAPSGYHANYCEGECPSHIAGTSGSSLSFHSTVINHYRMRGHSPFANLKSCCVPTKLRPMSMLYYDDGQNIIKKDIQNMIVEECGCS
modifications: Inhibin beta A chain
B1: the “RAX and SIX3 mRNA levels” value in experiment [2] (Activin A day 7 to day 14) is given as “decreased”. Besides, the “expression of optic vesicle transcription factors VSX2 and MITF (mRNA)” value in experiment [2] (Activin A day 7 to day 14, compared to spontaneous differentiation, p≤0.05) is recorded as “significantly increased”.
